Among the data in PubChem BioAssay AID179 (DTP/NCI, 2004) are EC50, IC50 and outcome values, retold here.

Calls of active or inactive are those of the source.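 How the source made its calls: active means compounds giving half or more protection of infected cells from virus-caused growth loss, again on retest; inactive means the rest.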 Where a SMILES comes first, the peptide text is derived from it. Bridges are numbered along the chain shown (N, C = ends). [ ]: non-standard residue; d: D form. The star is where a group is joined. ξ: configuration not given here. X16 = O=C(/C=C/C=C/C=C/C=C/C=C/C(=O)*)NC1=C(O)CCC1=O; NMeA = CN[C@@H](C)C(=O)O; ξF = NC(Cc1ccccc1)C(=O)O; ξA = CC(N)C(=O)O

For this assay, the system named is CEM cells HIV-1 protection, formazan growth assay. Put plainly: NCI AIDS Antiviral Assay. The following applies: for IC50: measured here: growth of uninfected CEM cells. In a few lines: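 Screen of anti-HIV-1 activity in human CEM cells using a formazan-based growth measurement at five drug concentrations. Hits with 50% or greater protection were repeated, and confirmation required reproducible complete protection.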

One may read the EC50 as the concentration that produces a half-maximal response. Broadly, the IC50 is the concentration that gives 50% inhibition. Take `CCOC(=O)CSc1nnc(CSc2nc(-c3ccccc3)c(-c3ccccc3)[nH]2)n1-c1ccccc1`: the EC50 is > 13.5 µM and the IC50 was > 13.5 µM. `OCC1O[C@H](O[C@@H]2CCCN3CC(O)C(O)[C@@H]23)C(O)C(O)C1O` (some centres undefined): the EC50 is > 1580 µM and the IC50 was > 1580 µM. As for `C=C1C2CC[C@@H]3C(C2)(C(=O)C(O)[C@@H]2C(C)(C)[C@@H]4CC(=O)C32CO4)C1OC(C)=O` (some centres undefined), the EC50 is > 646 µM and the IC50 is 8.13 µM. Regarding `CSc1cc(-c2ccccn2)nc(-c2ccccn2)c1.CSc1cc(-c2ccccn2)nc(-c2ccccn2)c1.[Cu+2].[O-][Cl+3]([O-])([O-])[O-]`, the EC50 is > 200 µM and the IC50 was 0.0631 µM. `O=C(O)c1c[nH]n2c(=S)ncnc12`: the EC50 was > 871 µM and the IC50 is > 871 µM. Turning to `O=C(Sc1c(-c2ccccc2)c(=O)n(-c2ccccc2)c(=S)n1-c1ccccc1)c1ccccc1`, the EC50 was > 200 µM and the IC50 was 8.51 µM. With `Cc1cn(C2CC(NC(=O)N(C)O)C(CO)O2)c(=O)[nH]c1=O` (centres undefined), the EC50 is > 200 µM and the IC50 was > 200 µM. Turning to `CC1=[N+]([O-])c2ccccc2C(=O)C1=O`, the outcome was inactive. Regarding `Cc1ccc(N2C=[N+](C)c3ccc(C)cc3C2)cc1`, the EC50 was > 200 µM and the IC50 is 33.9 µM.

Consider `CC[N+]1(C)CCC(O)(c2ccccc2)C(C(=O)c2ccccc2)C1` (centres undefined), for which the outcome was inactive. As for `NCCCCCC(=O)O`, the EC50 was > 200 µM and the IC50 was > 200 µM.

As for `CCc1nc(N)nc(N)c1-c1ccc(Cl)c(N=NN(C)C)c1`, the EC50 is > 1 µM and the IC50 is 0.589 µM. With `COc1cccc(/C=N/[N-]C(=O)c2ccncc2)c1[O-].[OH3+].[Pd+2]`, the EC50 was > 16.6 µM and the 50% inhibitory concentration (IC50) is > 16.6 µM. Take `CNC1C(OC2C(OC3C(O)C(O)C(N=C(N)N)C(O)C3N=C(N)N)OC(C)C2(O)/C=N/NC(N)=S)OC(CO)C(O)C1O` (centres undefined): the outcome was inactive. For the compound `O=C1c2cccc3cc([N+](=O)[O-])cc(c23)C(=O)N1Nc1ccc([N+](=O)[O-])cc1[N+](=O)[O-]`, the EC50 is > 200 µM and the IC50 was determined as 9.77 µM. On to `CC(=O)N(CN1C(=O)CCC1C(=O)O)c1ccc(C)cc1` (centres undefined), for which the outcome was inactive. `CC1(C)OC(=O)C(C#N)=C1C[n+]1ccccc1`: the EC50 was > 263 µM and the 50% inhibitory concentration (IC50) was > 263 µM. On to `N#Cc1cccc(N2C(=O)c3c(c(-c4ccccc4)c(-c4ccc(Sc5ccc(-c6c(-c7ccccc7)c7c(c(-c8ccccc8)c6-c6ccccc6)C(=O)N(c6cccc(C#N)c6)C7=O)cc5)cc4)c(-c4ccccc4)c3-c3ccccc3)C2=O)c1`, for which the EC50 was > 12 µM and the IC50 is > 12 µM. On to `O=C(Nc1ccc(C(=O)O)c(O)c1)c1ccc(C(=O)Nc2ccc(C(=O)O)c(O)c2)cc1`, for which the EC50 was > 200 µM and the IC50 was determined as 89.1 µM. As to `CO[C@@]12[C@@H]3N[C@@H]3CN1C1=C(C(=O)C(NCCc3ccccn3)=C(C)C1=O)[C@@H]2COC(N)=O`, the EC50 is > 200 µM and the IC50 was found to be 2 µM. On to `O=C1CSC(/C=C/c2ccccc2)N1c1ccc(-c2ccc(-n3c(-c4ccccc4)nc4ccccc4c3=O)cc2)cc1` (centres undefined), for which the EC50 is > 200 µM and the IC50 was 28.2 µM.

Turning to `OC(C#CCN1CCCC1)(c1ccccc1)c1ccc(Cl)cc1.[C-]#[O+].[C-]#[O+].[C-]#[O+].[C-]#[O+].[C-]#[O+].[C-]#[O+].[Co].[Co]` (centres undefined), the EC50 is > 200 µM and the IC50 turned out to be 5.62 µM.

Consider `CCOC(=O)Cn1c(=O)[nH]c(=O)c2c1ncn2Cc1ccccc1`, for which the EC50 is > 550 µM and the IC50 is 513 µM. For `Cc1cscc(C)c1=S` the same measures were > 195 µM and > 195 µM.

On to `N#Cc1c(-c2ccccc2)cc(-c2ccc(Cl)cc2)[nH]c1=S`, for which the EC50 is > 200 µM and the IC50 worked out at 33.9 µM. As to `COc1c(O)cc2c(c1O)C(=O)C1=C(CCCC1)C2=O`, the EC50 is > 97.7 µM and the IC50 amounted to 12.3 µM.

As for `O=c1c(I)c[nH]cc1I`, the EC50 is > 200 µM and the IC50 is > 200 µM.

On to `Cc1ncc([N+](=O)[O-])n1CCN(C)C(=O)CCCn1ccnc1[N+](=O)[O-]`, for which the EC50 was > 200 µM and the IC50 is > 200 µM. Consider `COc1ccc(-n2cnnc2-c2nsc3ccccc23)cc1`, for which the EC50 was > 85.1 µM and the IC50 worked out at 55 µM.

Turning to `Cc1cccc(NS(=O)(=O)c2ccc3c(c2)OCCOCCOCCOCCO3)c1`, the EC50 is > 200 µM and the IC50 is 158 µM.

`CC1(C)OC(CP(c2ccccc2)c2ccccc2)C(CP(c2ccccc2)c2ccccc2)O1` (centres undefined): the EC50 is > 2 µM and the IC50 is 0.229 µM. For `Cc1ccc2c(c1)CC1(Cc3ccccc3C1=O)C2=O` (centres undefined) the same measures were > 200 µM and 195 µM. As for `O=C1c2ccccc2C(=O)c2nc3ccc(Cl)cc3cc21`, the EC50 was > 6.17 µM and the IC50 is > 6.17 µM. On to `COc1cc(OC)cc(OCc2ccc3nc(-c4ccccc4)c(Cl)nc3c2)c1`, for which the EC50 was > 100 µM and the concentration for half-maximal inhibition (IC50) was > 100 µM. `C/C(=N\NC(=O)/C(C#N)=C\c1ccc(N(CCC#N)CCC#N)cc1)c1ccccc1`: the result was inactive.

For `O=C1CC2C(=O)N(Cc3ccccc3)C1C=C2S(=O)(=O)c1ccccc1` (centres undefined), the result was inactive. Turning to `[O-]c1csc2n(-c3ccccc3)c3ccccc3[n+]12`, the EC50 was > 200 µM and the 50% inhibitory concentration (IC50) is > 200 µM. As to `CCOC(=O)Oc1c(Cl)cc(C(=CCC[C@H]2CC[C@@]3(C)[C@@H](CC[C@@H]4[C@@H]3CC[C@]3(C)[C@@H](C(C)CCCC(C)C)CC[C@@H]43)C2)c2cc(Cl)c(OC(=O)OCC)c(C(=O)OCC)c2)cc1C(=O)OCC` (some centres undefined), the outcome was inactive. Take `COc1ccc(-c2c(C#N)c(-c3ccc(C)cc3)n(NS(=O)(=O)c3ccccc3)c(=O)c2C#N)cc1`: the EC50 is > 200 µM and the IC50 was found to be 29.5 µM. As for `O=C(O)c1c(CC(Cc2ccc3c(c2)CCC3)C(=O)O)ccc2c1CCC2` (centres undefined), the EC50 is > 200 µM and the IC50 is 145 µM. As for `CCc1cccc(C(C)C)c1NC(=O)/C(=N\NC(N)=O)C(C(=O)OC)c1cnc2ccccc2n1` (centres undefined), the outcome was inactive. Still for that read-out and setting: under `COC(=O)C(/C(=N/NC(N)=O)C(=O)Nc1c(C)cccc1C(C)(C)C)c1nc2ccc(Cl)cc2[nH]c1=O` (centres undefined) stands “inactive”. Turning to `CCOC(=O)c1c(N)n(-c2ccccc2)c(=O)n(-c2ccccc2)c1=O`, the EC50 was > 708 µM and the half-inhibitory concentration (IC50) turned out to be 372 µM. With `C=[N+]([O-])CC[C@@]1(O)C[C@H](n2ccc(=O)[nH]c2=O)O[C@@H]1CO[Si](C)(C)C(C)(C)C`, the EC50 was > 200 µM and the IC50 amounted to 44.7 µM.

As to `CCOc1ccccc1NC(=O)CC1Sc2ccccc2NC1=O` (centres undefined), the EC50 is > 55 µM and the IC50 was > 55 µM. `CNc1nc(N)[nH]c(=O)c1N=O`: the outcome was inactive. As for `COc1cc2ccc1NC(=O)N1CCN(CC1)C(=O)Nc1ccc(cc1OC)-c1ccc(c(OC)c1)NC(=O)N1CCN(CC1)C(=O)Nc1ccc-2cc1OC`, the EC50 is > 0.933 µM and the IC50 is > 0.933 µM. As for `COC(=O)[C@H](Cc1ccc(OC(C)(C)C)cc1)N[C@H](C)C(=O)N[C@@H](Cc1ccccc1)C(=O)OCc1ccccc1`, the EC50 was > 200 µM and the concentration for half-maximal inhibition (IC50) worked out at 27.5 µM. Regarding `Cc1ccc(-c2cc(-c3ccccc3)c(C#N)c(=O)n2C2OC(CO)C(O)C(O)C2O)cc1` (centres undefined), the EC50 was 21.4 µM and the IC50 came out at 22.4 µM. Regarding `O=[N+]([O-])c1ccc(C=Cc2ccc(C(F)(F)F)cc2)cc1.[C-]#[O+].[C-]#[O+].[C-]#[O+].[Cr]`, the result was inactive. Regarding `C/C(=N\NC(=S)N/N=C(\C)c1ccccn1)c1ccccn1`, the EC50 was > 200 µM and the IC50 worked out at 1.32 µM.

`O=C1CC2(CCN(Cc3ccccc3)CC2)C(=O)N1N1CCCCC1`: the EC50 was > 200 µM and the IC50 was > 200 µM. For `C=C(CN(C)C)C(=O)c1ccc(OC2OC(COC(C)=O)C(OC(C)=O)C(OC(C)=O)C2OC(C)=O)cc1` (centres undefined), the EC50 is > 200 µM and the IC50 stood at 3.24 µM.

`CC1NC(=O)[C@H](C)N(C)C(=O)[C@@H]2CCCN2C(=O)[C@@H](NC(=O)C(Cc2ccccc2)NC(=O)/C=C/C=C/C=C/C=C/C=C/C(=O)NC2=C(O)CCC2=O)COC(=O)[C@@H]2CCCN2C1=O` (some centres undefined) (X16-[ξF]SP[NMeA][ξA]P; ester 2-C): the EC50 is > 151 µM and the IC50 was > 151 µM. In the case of `C[C@H](OCc1ccccc1)C(=O)N1CCS(=O)(=O)N2CCC[C@H]2C1=O`, the EC50 was > 676 µM and the IC50 was > 676 µM. With `COC(=O)C1C(OC(=O)c2ccccc2)CC2CCC1N2C(N)=O` (centres undefined), the EC50 was > 200 µM and the IC50 was > 200 µM. Regarding `CCCCCCC=C(c1cc(Cl)c(OC)c(C(=O)OC)c1)c1cc(Cl)c(OC)c(C(=O)OC)c1`, the EC50 is > 5.37 µM and the IC50 was > 5.37 µM. As to `CCCCCCCCCCCCCCCCCCCCC(C(=O)OCC)S(=O)(=O)O` (centres undefined), the EC50 is > 100 µM and the IC50 was found to be 19.5 µM. Regarding `OCC1(CO)COC2(CCCCC2)N1`, the EC50 is > 1230 µM and the IC50 is > 1230 µM. For `S=C1N=C(Cl)/C(=C\c2ccco2)N1`, the EC50 was > 200 µM and the IC50 is > 200 µM. `O=C1OCCN1N1CCOC1=O`: the EC50 was > 200 µM and the IC50 was > 200 µM. As to `COC(=O)N/N=c1\cc(C(=O)Nc2ccc(C)c(C)c2)oc2cc(O)ccc12`, the EC50 is > 661 µM and the IC50 stood at 575 µM. As to `O=C(NCP(=O)(c1ccccc1)c1ccccc1)OCc1ccccc1`, the EC50 was > 200 µM and the half-inhibitory concentration (IC50) is > 200 µM. Regarding `COc1cc(/C=C(\NC(=O)c2ccccc2)c2nc3ncncc3[nH]2)cc(OC)c1OC`, the result was inactive. For the compound `O=C(O)COc1ccc(C(=O)/C(SS/C(C(=O)c2ccc(OCC(=O)O)c(Cl)c2Cl)=C2\C=C(c3ccc(Cl)cc3)SS2)=C2/C=C(c3ccc(Cl)cc3)SS2)c(Cl)c1Cl`, the result was inactive. Turning to `O=C(N/C(=C\c1ccc(Br)cc1)c1nc2ccccc2[nH]1)c1ccccc1`, the EC50 was > 61.7 µM and the IC50 turned out to be 33.9 µM.
